# Measured values taken from patent publication US6939946B2, “Ring modified cyclic peptide analogs” (Eli Lilly and Company, priority 1998, dated 2005).
# Counter-ions that a name gives are not always drawn. Bridge positions count the residues as written; N and C are the ends. Square brackets hold non-standard residues; d marks the D form. Peptide text beside a SMILES is read from it. * marks the point of attachment. ξ: configuration not given here. pTerphenylCO(4''-OnC5H11) = CCCCCOc1ccc(-c2ccc(-c3ccc(C(=O)*)cc3)cc2)cc1; Pro(3S-OH,4S-Me) = C[C@H]1CN[C@H](C(=O)O)[C@H]1O; hTyr(3R-OH) = N[C@H](C(=O)O)[C@H](O)Cc1ccc(O)cc1; Hyp = O=C(O)[C@@H]1C[C@@H](O)CN1; Thr(3ξ) = CC(O)[C@H](N)C(=O)O; dOrn = NCCC[C@@H](N)C(=O)O; Orn = NCCC[C@H](N)C(=O)O; Dab = NCC[C@H](N)C(=O)O; ξDap = NCC(N)C(=O)O
# Experiments:
# Settings in all cases: in vitro
# C. albicans = tested on: C. albicans
# C. parapsilosis = tested on: C. parapsilosis
# A. fumigatus = tested on: A. fumigatus
# Histoplasma capsulatum = tested on: Histoplasma capsulatum
Structure (SMILES),Minimal Inhibitory Concentration MIC C. albicans (C. albicans),Minimal Inhibitory Concentration MIC C. parapsilosis (C. parapsilosis),Minimal Inhibitory Concentration MIC A. fumigatus (A. fumigatus),Minimal Inhibitory Concentration MIC Histoplasma capsulatum (Histoplasma capsulatum)
"CCCCCOc1ccc(-c2ccc(-c3ccc(C(=O)N[C@H]4CCN(C)NC(=O)[C@@H]5[C@@H](O)[C@@H](C)CN5C(=O)[C@H](C(C)O)NC(=O)[C@H]([C@H](O)Cc5ccc(O)cc5)NC(=O)[C@@H]5C[C@@H](O)CN5C(=O)[C@H](C(C)O)NC4=O)cc3)cc2)cc1 (single isomer, unassigned) [E2-11(a) HCl salt]",0.001 µg/mL,0.156 µg/mL,0.078 µg/mL,0.02 µg/mL
"CCCCCOc1ccc(-c2ccc(-c3ccc(C(=O)N[C@H]4CCN(C)NC(=O)[C@@H]5[C@@H](O)[C@@H](C)CN5C(=O)[C@H](C(C)O)NC(=O)[C@H]([C@H](O)Cc5ccc(O)cc5)NC(=O)[C@@H]5C[C@@H](O)CN5C(=O)[C@H](C(C)O)NC4=O)cc3)cc2)cc1 (single isomer, unassigned) [E2-11(a) TFA salt]",0.005 µg/mL,0.156 µg/mL,0.039 µg/mL,0.78 µg/mL
"CCCCCOc1ccc(-c2ccc(-c3ccc(C(=O)N[C@H]4CCN(C(=O)C(N)CN)NC(=O)[C@@H]5[C@@H](O)[C@@H](C)CN5C(=O)[C@H](C(C)O)NC(=O)[C@H]([C@H](O)Cc5ccc(O)cc5)NC(=O)[C@@H]5C[C@@H](O)CN5C(=O)[C@H](C(C)O)NC4=O)cc3)cc2)cc1 (single isomer, unassigned) [E2-13 (isomer 1)]",0.078 µg/mL,2.5 µg/mL,0.625 µg/mL,1.25 µg/mL
"CCCCCOc1ccc(-c2ccc(-c3ccc(C(=O)N[C@H]4CCN(C(=O)C(N)CN)NC(=O)[C@@H]5[C@@H](O)[C@@H](C)CN5C(=O)[C@H](C(C)O)NC(=O)[C@H]([C@H](O)Cc5ccc(O)cc5)NC(=O)[C@@H]5C[C@@H](O)CN5C(=O)[C@H](C(C)O)NC4=O)cc3)cc2)cc1 (single isomer, unassigned) [E2-13 (isomer 2)]",0.156 µg/mL,20 µg/mL,1.25 µg/mL,10 µg/mL
"CCCCCOc1ccc(-c2ccc(-c3ccc(C(=O)N[C@H]4CCCNC(=O)[C@@H]5[C@@H](O)[C@@H](C)CN5C(=O)[C@H](C(C)O)NC(=O)[C@H]([C@H](O)Cc5ccc(O)cc5)NC(=O)[C@@H]5C[C@@H](O)CN5C(=O)[C@H](C(C)O)NC4=O)cc3)cc2)cc1 (stereo partly drawn) [Compound E1-3] ({pTerphenylCO(4''-OnC5H11)}-[Orn][Thr(3ξ)][Hyp][hTyr(3R-OH)][Thr(3ξ)][Pro(3S-OH,4S-Me)]; lactam 1-C)",0.005 µg/mL,0.156 µg/mL,0.078 µg/mL,0.156 µg/mL
"CCCCCOc1ccc(-c2ccc(-c3ccc(C(=O)N[C@@H]4CCCNC(=O)[C@@H]5[C@@H](O)[C@@H](C)CN5C(=O)[C@H](C(C)O)NC(=O)[C@H]([C@H](O)Cc5ccc(O)cc5)NC(=O)[C@@H]5C[C@@H](O)CN5C(=O)[C@H](C(C)O)NC4=O)cc3)cc2)cc1 (stereo partly drawn) [Compound E1-4] ({pTerphenylCO(4''-OnC5H11)}-[dOrn][Thr(3ξ)][Hyp][hTyr(3R-OH)][Thr(3ξ)][Pro(3S-OH,4S-Me)]; lactam 1-C)",1.25 µg/mL,>20 µg/mL,20.0 µg/mL,5.0 µg/mL
"CCCCCOc1ccc(-c2ccc(-c3ccc(C(=O)N[C@H]4CCCCNC(=O)[C@@H]5[C@@H](O)[C@@H](C)CN5C(=O)[C@H](C(C)O)NC(=O)[C@H]([C@H](O)Cc5ccc(O)cc5)NC(=O)[C@@H]5C[C@@H](O)CN5C(=O)[C@H](C(C)O)NC4=O)cc3)cc2)cc1 (stereo partly drawn) [Compound E1-5] ({pTerphenylCO(4''-OnC5H11)}-K[Thr(3ξ)][Hyp][hTyr(3R-OH)][Thr(3ξ)][Pro(3S-OH,4S-Me)]; lactam 1-C)",0.02 µg/mL,>20 µg/mL,2.5 µg/mL,0.156 µg/mL
"CCCCCOc1ccc(-c2ccc(-c3ccc(C(=O)N[C@H]4CCNC(=O)[C@@H]5[C@@H](O)[C@@H](C)CN5C(=O)[C@H](C(C)O)NC(=O)[C@H]([C@H](O)Cc5ccc(O)cc5)NC(=O)[C@@H]5C[C@@H](O)CN5C(=O)[C@H](C(C)O)NC4=O)cc3)cc2)cc1 (stereo partly drawn) [Compound E1-6] ({pTerphenylCO(4''-OnC5H11)}-[Dab][Thr(3ξ)][Hyp][hTyr(3R-OH)][Thr(3ξ)][Pro(3S-OH,4S-Me)]; lactam 1-C)",0.039 µg/mL,>20 µg/mL,20 µg/mL,0.078 µg/mL
"CCCCCOc1ccc(-c2ccc(-c3ccc(C(=O)NC4CNC(=O)[C@@H]5[C@@H](O)[C@@H](C)CN5C(=O)[C@H](C(C)O)NC(=O)[C@H]([C@H](O)Cc5ccc(O)cc5)NC(=O)[C@@H]5C[C@@H](O)CN5C(=O)[C@H](C(C)O)NC4=O)cc3)cc2)cc1 (stereo partly drawn) [Compound E1-7] ({pTerphenylCO(4''-OnC5H11)}-[ξDap][Thr(3ξ)][Hyp][hTyr(3R-OH)][Thr(3ξ)][Pro(3S-OH,4S-Me)]; lactam 1-C)",0.312 µg/mL,>20 µg/mL,0.625 µg/mL,0.625 µg/mL
CCCCCOc1ccc(-c2ccc(-c3ccc(C(=O)N[C@H]4CCN(C(=O)CN)NC(=O)[C@@H]5[C@@H](O)[C@@H](C)CN5C(=O)[C@H](C(C)O)NC(=O)[C@H]([C@H](O)Cc5ccc(O)cc5)NC(=O)[C@@H]5C[C@@H](O)CN5C(=O)[C@H](C(C)O)NC4=O)cc3)cc2)cc1 (stereo partly drawn) [Compound E2-12],0.01 µg/mL,0.312 µg/mL,0.156 µg/mL,0.039 µg/mL
CCCCCOc1ccc(-c2ccc(-c3ccc(C(=O)NC4CS(=O)(=O)CCNC(=O)[C@@H]5[C@H](O)[C@@H](C)CN5C(=O)[C@H]([C@@H](C)O)NC(=O)[C@H]([C@H](O)Cc5ccc(O)cc5)NC(=O)[C@@H]5C[C@@H](O)CN5C(=O)[C@H]([C@@H](C)O)NC4=O)cc3)cc2)cc1 (stereo partly drawn) [Compound E3-6],10 µg/mL,>20 µg/mL,20 µg/mL,10 µg/mL
CCCCCOc1ccc(-c2ccc(-c3ccc(C(=O)N[C@@H]4CS(=O)(=O)CCNC(=O)[C@@H]5[C@H](O)[C@@H](C)CN5C(=O)[C@H]([C@@H](C)O)NC(=O)[C@H]([C@H](O)Cc5ccc(O)cc5)NC(=O)[C@@H]5C[C@@H](O)CN5C(=O)[C@H]([C@@H](C)O)NC4=O)cc3)cc2)cc1 [Compound E3-7],>20 µg/mL,>20 µg/mL,>20 µg/mL,>20 µg/mL
